{
  "source": "ChEMBL document CHEMBL1138665",
  "about": "“Probing the activity differences of simple and complex brominated aryl compounds against 15-soybean, 15-human, and 12-human lipoxygenase” (J Med Chem, 2004)",
  "key": {"[1]": {"biological_target": "T1, Polyunsaturated fatty acid lipoxygenase ALOX12 (Homo sapiens, UniProt P18054)", "T1 sequence (P18054 whole entry)": "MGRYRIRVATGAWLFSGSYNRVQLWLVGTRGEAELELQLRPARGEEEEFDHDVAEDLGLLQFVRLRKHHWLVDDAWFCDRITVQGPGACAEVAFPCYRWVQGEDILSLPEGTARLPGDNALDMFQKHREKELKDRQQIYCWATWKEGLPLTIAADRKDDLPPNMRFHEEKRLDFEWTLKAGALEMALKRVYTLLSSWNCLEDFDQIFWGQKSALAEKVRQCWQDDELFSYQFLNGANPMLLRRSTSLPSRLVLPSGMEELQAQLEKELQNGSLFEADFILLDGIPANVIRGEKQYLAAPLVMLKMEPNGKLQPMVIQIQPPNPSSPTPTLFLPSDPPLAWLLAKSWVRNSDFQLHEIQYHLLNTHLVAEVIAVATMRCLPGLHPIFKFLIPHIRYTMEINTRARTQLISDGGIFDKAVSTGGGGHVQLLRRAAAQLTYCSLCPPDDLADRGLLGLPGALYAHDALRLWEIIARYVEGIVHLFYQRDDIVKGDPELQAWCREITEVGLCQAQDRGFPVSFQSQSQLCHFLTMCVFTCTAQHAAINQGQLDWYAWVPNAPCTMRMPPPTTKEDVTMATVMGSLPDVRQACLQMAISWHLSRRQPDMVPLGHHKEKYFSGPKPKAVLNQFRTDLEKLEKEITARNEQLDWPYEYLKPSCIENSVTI", "assay": "Inhibitory effect on human platelet 12-lipoxygenase"}, "[2]": {"biological_target": "T2, Polyunsaturated fatty acid lipoxygenase ALOX15 (Homo sapiens, UniProt P16050)", "T2 sequence (P16050 whole entry)": "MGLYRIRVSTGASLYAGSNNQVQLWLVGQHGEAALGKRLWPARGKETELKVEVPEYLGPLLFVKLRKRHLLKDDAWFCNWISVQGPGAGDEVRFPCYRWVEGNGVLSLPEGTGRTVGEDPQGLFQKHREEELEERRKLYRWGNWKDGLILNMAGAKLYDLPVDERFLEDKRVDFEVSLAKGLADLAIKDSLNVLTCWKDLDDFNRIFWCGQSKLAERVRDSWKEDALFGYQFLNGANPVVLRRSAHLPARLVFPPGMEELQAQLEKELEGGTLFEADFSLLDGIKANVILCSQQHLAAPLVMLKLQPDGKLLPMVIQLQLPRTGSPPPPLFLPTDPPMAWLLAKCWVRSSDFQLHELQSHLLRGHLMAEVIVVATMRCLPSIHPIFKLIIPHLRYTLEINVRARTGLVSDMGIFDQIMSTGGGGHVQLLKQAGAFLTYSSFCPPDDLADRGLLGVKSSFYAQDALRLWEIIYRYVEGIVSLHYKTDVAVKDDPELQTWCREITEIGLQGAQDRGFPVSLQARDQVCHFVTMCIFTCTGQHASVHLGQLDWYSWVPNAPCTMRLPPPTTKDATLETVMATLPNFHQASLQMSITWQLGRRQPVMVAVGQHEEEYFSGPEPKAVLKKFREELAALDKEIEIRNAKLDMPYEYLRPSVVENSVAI", "assay": "Inhibitory effect on human reticulocyte 15-lipoxygenase"}, "[3]": {"assay": "Inhibitory effect on soybean 15-lipoxygenase", "design": "species or system Glycine max"}},
  "data": [
    {"smiles": "CCOc1ccc(Br)cc1", "values": [
      {"measurement": "IC50", "setting": "[1]", "value": "> 100", "unit": "µM"},
      {"measurement": "IC50", "setting": "[2]", "value": "> 100", "unit": "µM"},
      {"measurement": "IC50", "setting": "[3]", "value": "> 100", "unit": "µM"}
    ]},
    {"smiles": "O=C(N/C=C/c1ccc(O)c(Br)c1)/C(Cc1cc(Br)c(O)c(Oc2c(Br)cc(C/C(=N\\O)C(=O)NCCc3ccc(O)c(Br)c3)cc2Br)c1)=N/O", "values": [
      {"measurement": "IC50", "setting": "[1]", "value": 0.4, "unit": "µM"},
      {"measurement": "IC50", "setting": "[2]", "value": 2, "unit": "µM"},
      {"measurement": "IC50", "setting": "[3]", "value": 59, "unit": "µM"}
    ]},
    {"smiles": "Oc1c(Br)cc(Br)c(Br)c1Oc1ccc(Br)cc1Br", "values": [
      {"measurement": "IC50", "setting": "[1]", "value": 6, "unit": "µM"},
      {"measurement": "IC50", "setting": "[2]", "value": 5, "unit": "µM"},
      {"measurement": "IC50", "setting": "[3]", "value": 9, "unit": "µM"}
    ]},
    {"smiles": "Oc1c(Br)cc(Br)cc1Oc1c(O)c(Br)c(Br)c(Br)c1Br", "values": [
      {"measurement": "IC50", "setting": "[1]", "value": 0.41, "unit": "µM"},
      {"measurement": "IC50", "setting": "[2]", "value": 0.79, "unit": "µM"},
      {"measurement": "IC50", "setting": "[3]", "value": "> 100", "unit": "µM"}
    ]},
    {"smiles": "Oc1ccc(Br)cc1Br", "values": [
      {"measurement": "IC50", "setting": "[1]", "value": "> 100", "unit": "µM"},
      {"measurement": "IC50", "setting": "[3]", "value": "> 100", "unit": "µM"}
    ]},
    {"smiles": "Oc1ccc(Br)cc1", "values": [
      {"measurement": "IC50", "setting": "[1]", "value": "> 100", "unit": "µM"},
      {"measurement": "IC50", "setting": "[2]", "value": 55, "unit": "µM"},
      {"measurement": "IC50", "setting": "[3]", "value": 48, "unit": "µM"}
    ]},
    {"smiles": "CC(C)(c1ccc(O)c(Br)c1)c1cc(Br)c(O)c(Br)c1", "values": [
      {"measurement": "IC50", "setting": "[1]", "value": 7, "unit": "µM"},
      {"measurement": "IC50", "setting": "[2]", "value": 5, "unit": "µM"},
      {"measurement": "IC50", "setting": "[3]", "value": "> 100", "unit": "µM"}
    ]},
    {"smiles": "Oc1ccccc1Br", "values": [
      {"measurement": "IC50", "setting": "[1]", "value": "> 100", "unit": "µM"},
      {"measurement": "IC50", "setting": "[2]", "value": "> 100", "unit": "µM"},
      {"measurement": "IC50", "setting": "[3]", "value": "> 100", "unit": "µM"}
    ]},
    {"smiles": "Oc1cc(Br)c(Br)c2c1Oc1cc(Br)cc(Br)c1O2", "note": "[SPONGIADIOXIN A]", "values": [
      {"measurement": "IC50", "setting": "[1]", "value": 50, "unit": "µM"},
      {"measurement": "IC50", "setting": "[3]", "value": "> 100", "unit": "µM"}
    ]},
    {"smiles": "Oc1cccc(Br)c1", "values": [
      {"measurement": "IC50", "setting": "[1]", "value": "> 100", "unit": "µM"},
      {"measurement": "IC50", "setting": "[2]", "value": "> 100", "unit": "µM"},
      {"measurement": "IC50", "setting": "[3]", "value": "> 100", "unit": "µM"}
    ]},
    {"smiles": "Oc1c(Br)cc(Br)cc1Oc1c(Br)cc(Br)c(Br)c1O", "values": [
      {"measurement": "IC50", "setting": "[1]", "value": 6.2, "unit": "µM"},
      {"measurement": "IC50", "setting": "[2]", "value": 2.2, "unit": "µM"},
      {"measurement": "IC50", "setting": "[3]", "value": "> 100", "unit": "µM"}
    ]},
    {"smiles": "COc1cc(Br)cc(Br)c1Oc1cc(Br)cc(Br)c1O", "values": [
      {"measurement": "IC50", "setting": "[1]", "value": 12, "unit": "µM"},
      {"measurement": "IC50", "setting": "[2]", "value": 10, "unit": "µM"},
      {"measurement": "IC50", "setting": "[3]", "value": "> 100", "unit": "µM"}
    ]},
    {"smiles": "Oc1c(Br)c(Br)c(Br)c(Br)c1Oc1ccc(Br)cc1Br", "values": [
      {"measurement": "IC50", "setting": "[1]", "value": 0.7, "unit": "µM"},
      {"measurement": "IC50", "setting": "[2]", "value": 1.8, "unit": "µM"},
      {"measurement": "IC50", "setting": "[3]", "value": 7, "unit": "µM"}
    ]},
    {"smiles": "Oc1cc(Br)cc2c1Oc1cc(Br)cc(Br)c1O2", "note": "[SPONGIADIOXIN C]", "values": [
      {"measurement": "IC50", "setting": "[1]", "value": 30, "unit": "µM"},
      {"measurement": "IC50", "setting": "[2]", "value": 0.8, "unit": "µM"},
      {"measurement": "IC50", "setting": "[3]", "value": "> 100", "unit": "µM"}
    ]},
    {"smiles": "OCc1ccc(Br)cc1", "values": [
      {"measurement": "IC50", "setting": "[1]", "value": "> 100", "unit": "µM"},
      {"measurement": "IC50", "setting": "[2]", "value": "> 100", "unit": "µM"},
      {"measurement": "IC50", "setting": "[3]", "value": "> 100", "unit": "µM"}
    ]},
    {"smiles": "Oc1ccc(Br)cc1Oc1c(O)ccc(Br)c1Br", "values": [
      {"measurement": "IC50", "setting": "[1]", "value": 47, "unit": "µM"},
      {"measurement": "IC50", "setting": "[3]", "value": "> 100", "unit": "µM"}
    ]},
    {"smiles": "O=C1N/C=C/c2ccc(c(Br)c2)Oc2cc(cc(Br)c2O)CCNC(=O)/C(=N/O)Cc2ccc(c(Br)c2)Oc2cc(cc(Br)c2O)C/C1=N\\O", "note": "[BASTADIN 7]", "values": [
      {"measurement": "IC50", "setting": "[1]", "value": 2.3, "unit": "µM"},
      {"measurement": "IC50", "setting": "[2]", "value": 4, "unit": "µM"},
      {"measurement": "IC50", "setting": "[3]", "value": 27, "unit": "µM"}
    ]},
    {"smiles": "CC(C)(c1cc(Br)c(O)c(Br)c1)c1cc(Br)c(O)c(Br)c1", "values": [
      {"measurement": "IC50", "setting": "[1]", "value": 10, "unit": "µM"},
      {"measurement": "IC50", "setting": "[2]", "value": 4, "unit": "µM"},
      {"measurement": "IC50", "setting": "[3]", "value": "> 100", "unit": "µM"}
    ]},
    {"smiles": "Oc1c(Br)cccc1Br", "values": [
      {"measurement": "IC50", "setting": "[1]", "value": "> 100", "unit": "µM"},
      {"measurement": "IC50", "setting": "[2]", "value": "> 100", "unit": "µM"},
      {"measurement": "IC50", "setting": "[3]", "value": "> 100", "unit": "µM"}
    ]},
    {"smiles": "CC(Cc1ccc(O)c(O)c1)[C@H](C)Cc1ccc(O)c(O)c1", "note": "(stereo not given in full)", "values": [
      {"measurement": "IC50", "setting": "[3]", "value": 0.18, "unit": "µM"}
    ]}
  ]
}
